Series [1] concerns the target T1, 5-HT1AR wildtype (Homo sapiens, UniProt P08908).
T1 construct: host or cells: HEK293T, HEK293A, HEK293AΔGs, HEK293AΔGi/o, HEK293AΔARRB1/B2
T1 sequence (P08908 1-422): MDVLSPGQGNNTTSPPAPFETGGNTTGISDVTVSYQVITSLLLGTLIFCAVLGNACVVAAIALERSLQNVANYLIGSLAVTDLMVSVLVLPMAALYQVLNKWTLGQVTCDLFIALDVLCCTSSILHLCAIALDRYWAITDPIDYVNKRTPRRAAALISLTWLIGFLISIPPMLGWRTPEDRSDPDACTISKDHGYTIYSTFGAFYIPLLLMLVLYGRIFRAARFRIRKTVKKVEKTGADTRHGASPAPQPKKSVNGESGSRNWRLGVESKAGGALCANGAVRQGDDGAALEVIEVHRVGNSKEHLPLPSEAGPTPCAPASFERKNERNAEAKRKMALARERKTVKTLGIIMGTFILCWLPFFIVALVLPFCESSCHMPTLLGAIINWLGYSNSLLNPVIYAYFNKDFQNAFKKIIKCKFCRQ
The series is described as follows: GloSensor inhibition of cAMP accumulation in HEK293AΔGs. It counts as cell-based.

Series [2] has as its target T1, 5-HT1AR wildtype. The series can be described thus: GloSensor cAMP accumulation in HEK293AΔGi/o. It counts as cell-based. To be noted: for Emax: read-out: Emax [% ± SEM], cAMP accumulation.
Series [3] addresses T1, 5-HT1AR wildtype. The series is described as follows: β-arrestin 2 recruitment, enhanced bystander BRET in HEK293T with GRK2. It counts as cell-based. To be noted: for Emax: HEK-293T, read-out: Emax [% ± SEM], β-arrestin 2 recruitment.
Series [4] deals with T2, 5-HT1AR wt (Homo sapiens, UniProt P08908).
T2 construct: host or cells: HEK293T, transient; membranes
T2 sequence (P08908 1-422): T1 sequence (P08908 1-422)
The series is described as follows: Radioligand competition, displacement of [3H]WAY100635. The following applies: fig. S1C, in words. It counts as binding.

Series [5] deals with T3, 5-HT1AR (Homo sapiens, UniProt P08908).
T3 sequence (P08908 1-422): T1 sequence (P08908 1-422)
The series is described as follows: BRET-based cAMP assay (CAMYEL biosensor) in CHO-K1 cells. It counts as cell-based. The following applies: inhibition of cAMP accumulation, CAMYEL, fig. S1C, in words.

Series [6] has as its system male C56BL/6 mice. The series can be described thus: 52°C hot plate. It counts as in vivo, mouse. The following applies: wild-type mice, 10 mg/kg.
Series [7] relates to 5-HT1AR KO mice. The series is described as follows: 52°C hot plate in 5-HT1AR KO mice. It counts as in vivo, mouse. The following applies: 10 mg/kg.
Series [8] can be described thus: Metabolic stability with rat liver microsomes. It counts as in vitro ADME. To be noted: after 1 h incubation.
The target of series [9] is human WT 5-HT1AR with C-terminal ARMS2-PK2 (human) (UniProt P08908). The series can be described thus: split reporter.
Where [10] appears, read: read-out: Emax [% ± SEM], inhibition of cAMP accumulation.

Consider 9 molecules from paper PMC12175894 (Science Advances, 2025).

Entries after “also recorded” stand apart in the source; their conditions may differ.

On to `CCN(CC)C(=O)N[C@H]1C=C2c3cccc4[nH]cc(c34)C[C@H]2N(C)C1` [(S)-(-)lisuride, (S)-(−)-lisuride], for which the “Emax [% ± SEM], inhibition of cAMP accumulation” value in series [1] (HEK293AΔGs, wildtype, relative to serotonin) is reported as 68 ± 4%. The “Emax [% ± SEM], cAMP accumulation” value in [2] (HEK293AΔGi/o, wildtype, relative to serotonin) turned out to be 29 ± 4%. The “Emax [% ± SEM], β-arrestin 2 recruitment” value in [3] (HEK293T with GRK2, wildtype, relative to serotonin) was determined as 46 ± 3%.

As to `COc1ccccc1OCCCNCCCOc1ccc2c(c1)NC(=O)CO2` [TA12], the “5-HT1AR binding relative to ST171 (SAR study)” value in [4] is on record as “reduced binding affinity; also recorded: attenuation of binding”. Moreover, in [5], the “potency and efficacy / receptor activation relative to ST171 (SAR study)” value is “attenuation of binding and receptor activation”.

For the molecule `CSc1ccccc1OCCNCCCOc1ccc2c(c1)NC(=O)CO2` [TA48], the “potency and efficacy / receptor activation relative to ST171 (SAR study)” value in series [5] is “considerable reduction of potency and efficacy”.

For `O=C1CCc2ccc(OCCCCN3CCN(c4cccc(Cl)c4Cl)CC3)cc2N1` [aripiprazole], the Emax in series [1] (read-out: Emax [% ± SEM], inhibition of cAMP accumulation, HEK293AΔGs, wildtype, relative to serotonin) was 90 ± 9%; in series [2], below 5%.

For `O=C1CC2(CCCC2)CC(=O)N1CCCCN1CCN(c2ncccn2)CC1` [buspirone], the figures for the Emax in [1] (setting [10]), in series [2] and in [3] were 58 ± 1%, below 5% and below 5%, respectively.

Consider `CN1CC[C@]23c4c5ccc(O)c4O[C@H]2[C@@H](O)C=C[C@H]3[C@H]1C5` [morphine], for which the “response latency, 52°C hot plate” value in series [6] is “significantly increased the response latency”. The “response latency, hot plate in 5-HT1AR KO mice” value in series [7] was “significantly increased the response latency”.

With `CCCN(CCc1cccs1)[C@H]1CCc2c(O)cccc2C1` [rotigotine, reference compound], in [8], the intact substrate remaining is given as below 15%.

As to `O=C1Cc2cc(CCN3CCN(c4nsc5ccccc45)CC3)c(Cl)cc2N1` [ziprasidone], in series [1] (HEK293AΔGs), the “lower potency compared to ST171, Gi/o pathway” value was “more than 70 fold”. For the same molecule, the EC50 in series [1] (HEK293AΔGs, wildtype, read-out: EC50 [nM ± SEM], inhibition of cAMP accumulation) amounted to 370 ± 140 nM. For the same molecule, the Emax in [1] (setting [10]) is 57 ± 7%; in series [2], below 5%; in [3], below 5%.

In series [9], “β-arrestin 2 labeled with the enzyme acceptor (from UniProt P32121 1-409) (natural protein)” returned an Emax of recruitment with ST171, elevated GRK2 (% of serotonin) of 15% and an Emax of recruitment with ST171, native GRK2 (% of serotonin) below 5%.
